The results in this text go back to ChEMBL document CHEMBL1143368, “The translocator protein (18 kDa): central nervous system disease and drug design” (J Med Chem, 2009).

The target of one experiment is Translocator protein (Rattus norvegicus, UniProt P16257). Description: Displacement of [3H]PK11195 from TSPO in rat cortex. Background: Displacement assays read how much labelled ligand stays bound in the presence of the test substance.
The species named for experiment [1] is Rattus norvegicus. Description: Displacement of [3H]diazepam from central benzodiazepine receptor in Wistar rat […] by scintillation counting.
For experiment [2], the species on record is Rattus norvegicus. The experiment is described as follows: Displacement of [3H]Ro5-4864 from GABAA receptor in rat brain membrane. Format: cell membranes.
The test system of experiment [3] is U-937. Description: Antiapoptotic activity against TNF-alpha-induced apoptosis in human U937 cells. Format: functional.
For experiment [4], the target named is Translocator protein (Homo sapiens) (UniProt P30536). Description: Displacement of [3H]Ro5-4864 from TSPO.
Experiment [5] concerns U-937. Description: Induction of apoptosis in human U937 cells. Format: functional.
Experiment [6] has as its target Translocator protein (Mus musculus) (UniProt P50637). Description: Binding affinity to mitochondrial TSPO in mouse MA10 cells in presence of human chorionic gonadotropin. Format: cell-based.
The target in experiment [7] is Translocator protein (Homo sapiens) (UniProt P30536). The experiment is described as follows: Displacement of [3H]Ro5-4864 from TSPO in caudate nucleus of patient with Huntington's disease. The conditions noted are these: tested as the 3H-labelled form.
Experiment [8] has the same target. Description: Displacement of [3H]Ro5-4864 from TSPO in putamen of healthy human. As to conditions: tested as the 3H-labelled form.
Experiment [9] has the same target. The experiment is described as follows: Binding affinity to TSPO in white matter of healthy human. The experiment is classed as tissue-based. The conditions noted are these: tested as the 125I-labelled form.
Experiment [10] has the same target. The experiment is described as follows: Binding affinity to TSPO in temporal lobe of healthy human. The experiment is classed as tissue-based. As to conditions: tested as the 125I-labelled form.
Experiment [11] shares this target. Description: Binding affinity to TSPO in parietal lobe of healthy human. The conditions noted are these: tested as the 125I-labelled form. The experiment is classed as tissue-based.
For experiment [12] the target is unchanged. The experiment is described as follows: Binding affinity to TSPO in parietal lobe of patient with Alzheimer's disease. The conditions noted are these: tested as the 125I-labelled form.
The target is the same in experiment [13]. Description: Binding affinity to TSPO in temporal lobe of patient with Alzheimer's disease. The conditions noted are these: tested as the 125I-labelled form.
Experiment [14] shares this target. The experiment is described as follows: Binding affinity to TSPO in white matter of patient with Alzheimer's disease. Format: tissue-based. As to conditions: tested as the 125I-labelled form.

Molecules are shown by their SMILES. Where only a bound is given, the exact number is not on record here.

Sequence of Translocator protein (Homo sapiens) (P30536 whole entry): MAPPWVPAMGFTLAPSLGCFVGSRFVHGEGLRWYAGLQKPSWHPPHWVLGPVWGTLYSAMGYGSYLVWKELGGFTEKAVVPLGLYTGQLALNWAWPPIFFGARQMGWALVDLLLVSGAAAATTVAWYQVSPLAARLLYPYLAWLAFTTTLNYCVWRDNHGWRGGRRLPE
Sequence of Translocator protein (P16257 whole entry, looked up): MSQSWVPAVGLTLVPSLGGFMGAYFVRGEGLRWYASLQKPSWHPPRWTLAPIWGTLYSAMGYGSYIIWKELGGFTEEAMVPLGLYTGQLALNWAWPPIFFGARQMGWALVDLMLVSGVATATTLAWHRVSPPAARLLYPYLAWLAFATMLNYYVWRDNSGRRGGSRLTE
Sequence of Translocator protein (Mus musculus) (P50637 whole entry, looked up): as the sequence (P16257 whole entry, looked up) above, with S2P, Q3E, I67V, E77D, V110A, M113L, M149V, T168P counted along it

For orientation: Ki means a measure of affinity in units of concentration, obtained from inhibition or displacement. Low values mean tighter binding, high ones weaker binding. `CC(=O)N(Cc1ccccc1OC(C)C)c1ccc(Cl)cc1Oc1ccccc1`: the Ki on Translocator protein stood at 0.92 nM.

On to `CN1C(=O)CN=C(c2ccccc2)c2cc(Cl)ccc21`, for which the Activity in the experiment filed under Rattus norvegicus [1] came out at 40 nM.

For the molecule `CN1C(=O)CN=C(c2ccc(Cl)cc2)c2cc(Cl)ccc21` [RO-54864], the Activity in the experiment listed under Rattus norvegicus [2] is 163 µM; in the experiment with U-937 [3], 10 µM; in experiment [4] it was 7.3 nM; with U-937 [5], over 10 µM; in experiment [6], 0.2 nM. Further, the Bmax in experiment [7] stood at 61.7 fmol/mg; in [8], 40.7 fmol/mg.

At Translocator protein, `CCCCCCN(CCCCCC)C(=O)Cc1c(-c2ccc(F)cc2)[nH]c2ccccc12` had a Ki of 5 nM. This lies in the single-digit nanomolar range.

On to `COc1ccc(OC)c(CN(C(C)=O)c2cc(I)ccc2Oc2ccccc2)c1`, for which the Bmax in [9] turned out to be 0.24 fmol/mg; in experiment [10], 0.22 fmol/mg; in experiment [11] it was 0.32 fmol/mg; in experiment [12] it was 1.26 fmol/mg; in [13], 1.02 fmol/mg; in experiment [14] it was 1.12 fmol/mg.
